Literature values as cited in patent US10092615B2, “Nutritional supplements for improving male fertility” (Fairhaven Health, LLC, priority 2016, dated 2018).

How the values were obtained:
[1] = test system: patients affected by male infertility; conditions: compared to placebo; for forward sperm motility (WMD): 95% CI (0.49, 23.16); for forward sperm motility (WMD) / total sperm motility (WMD): p=0.04; for total sperm motility (WMD): 95% CI (1.72, 13.14); for pregnancy rate (OR): 95% CI (2.08, 8.08), p<0.0001; for semen volume (WMD): 95% CI (−0.02, 0.58), p=0.07; for semen volume (WMD) / sperm concentration (WMD): without significant difference; for sperm concentration (WMD): 95% CI (−4.47, 15.84), p=0.27; for atypical sperm cell (WMD): 95% CI (−7.89, −3.56), p<0.00001
[2] = test system: sperm samples from 22 asthenospermic men; conditions: 50 μM, in vitro incubation
[3] = test system: infertile patients; conditions: given for a mean 103 days

| Compound | forward sperm motility (WMD) [1] | total sperm motility (WMD) [1] | pregnancy rate (OR) [1] | semen volume (WMD) [1] | sperm concentration (WMD) [1] | atypical sperm cell (WMD) [1] | sperm motility [2] | standard sperm parameters [3] | fertilization rate ([3]; p<0.05) |
| --- | --- | --- | --- | --- | --- | --- | --- | --- | --- |
| C[N+](C)(C)C[C@H](O)CC(=O)[O-] [L-carnitine] | 11.83 | 7.43 | 4.10 | 0.28 | 5.69 | −5.72 | – | – | – |
| CC(=O)O[C@H](CC(=O)[O-])C[N+](C)(C)C [acetyl-L-carnitine] | 11.83 | 7.43 | 4.10 | 0.28 | 5.69 | −5.72 | – | – | – |
| COC1=C(OC)C(=O)C(C/C=C(\C)CC/C=C(\C)CC/C=C(\C)CC/C=C(\C)CC/C=C(\C)CC/C=C(\C)CC/C=C(\C)CC/C=C(\C)CC/C=C(\C)CCC=C(C)C)=C(C)C1=O [Coenzyme Q10] | – | – | – | – | – | – | significant increases in motility | no significant changes | significant improvement |
